Holding throughout (experiment): relative viability (nuclei count vs DMSO), 5 days (fraction); higher = more cells survive
Compound in the experiment “TPCA-1 + Lapatinib”: C1=CC(=CC=C1C2=CC(=C(S2)NC(=O)N)C(=O)N)F [TPCA-1] + CS(=O)(=O)CCNCc1ccc(-c2ccc3ncnc(Nc4ccc(OCc5cccc(F)c5)c(Cl)c4)c3c2)o1 [Lapatinib] (partner 2 µM)
A digest of the protocol:
(§1)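 Lung cancer cell lines, seeded in 1536-well plates, were treated the following day by pin tool with a single drug or with five library-drug doses (not always all listed) in √10 steps on top of a fixed anchor-drug dose. Cells were fixed and nuclei stained in one step after 5 days, and nuclei were counted. Relative viability is the nuclei count for treated wells divided by that for vehicle wells, reported as medians of duplicate plates.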

Compound in the experiment “TPCA-1 + Foretinib”: C1=CC(=CC=C1C2=CC(=C(S2)NC(=O)N)C(=O)N)F [TPCA-1] + COc1cc2c(Oc3ccc(NC(=O)C4(C(=O)Nc5ccc(F)cc5)CC4)cc3F)ccnc2cc1OCCCN1CCOCC1 [Foretinib] (partner 0.25 µM)
A digest of the protocol:
as §1

Compound in experiment [1]: C1/C(=C\C2=CC=CS2)/C(=O)/C(=C/C3=CC=CS3)/C1 + CC(=O)c1c(C)c2cnc(Nc3ccc(N4CCNCC4)cn3)nc2n(C2CCCC2)c1=O [Palbociclib] (partner 0.5 µM)
In short, it runs like this: as §1

Compound in the experiment “TPCA-1 + Bortezomib”: C1=CC(=CC=C1C2=CC(=C(S2)NC(=O)N)C(=O)N)F [TPCA-1] + CC(C)C[C@H](NC(=O)[C@H](Cc1ccccc1)NC(=O)c1cnccn1)B(O)O [Bortezomib] (partner 0.002 µM)
A digest of the protocol:
as §1

The values that follow come from the supplement of paper PMC10307832.

For NCI-H2087, the relative viability was found to be 1.08 with TPCA-1 + Lapatinib (first compound 0.04 µM); 0.914 with TPCA-1 + Lapatinib (first compound 0.1265 µM); 0.905 with TPCA-1 + Lapatinib (first compound 0.4 µM); 0.798 with TPCA-1 + Lapatinib (first compound 1.265 µM); 0.247 with TPCA-1 + Lapatinib (first compound 4 µM); 1.52 with TPCA-1 + Foretinib (first compound 0.04 µM). In addition, the relative viability was 0.99 in the experiment with TPCA-1 + Foretinib (first compound 0.1265 µM); 1.09 with TPCA-1 + Foretinib (first compound 0.4 µM); 0.894 with TPCA-1 + Foretinib (first compound 1.265 µM); 0.432 with TPCA-1 + Foretinib (first compound 4 µM); 0.272 in experiment [1] (first compound 0.2 µM); 0.215 in experiment [1] (first compound 0.6325 µM). The relative viability amounted to 0.271 in experiment [1] (first compound 2 µM); 0.168 in experiment [1] (first compound 6.325 µM); 0.303 in experiment [1] (first compound 20 µM); 0.777 with TPCA-1 + Bortezomib (first compound 0.04 µM); 0.709 with TPCA-1 + Bortezomib (first compound 0.1265 µM); 0.666 with TPCA-1 + Bortezomib (first compound 0.4 µM). Besides, the relative viability amounted to 0.815 in the experiment with TPCA-1 + Bortezomib (first compound 1.265 µM) and 0.455 with TPCA-1 + Bortezomib (first compound 4 µM).

As to NCI-H2126, the relative viability with TPCA-1 + Lapatinib (first compound 0.04 µM) was determined as 0.827; in the experiment with TPCA-1 + Lapatinib (first compound 0.1265 µM), 0.736; with TPCA-1 + Lapatinib (first compound 0.4 µM) it was 0.808; with TPCA-1 + Lapatinib (first compound 1.265 µM), 0.749; with TPCA-1 + Lapatinib (first compound 4 µM) it was 0.669; with TPCA-1 + Foretinib (first compound 0.04 µM) it was 1.25. The relative viability in the experiment with TPCA-1 + Foretinib (first compound 0.1265 µM) was determined as 0.721; in the experiment with TPCA-1 + Foretinib (first compound 0.4 µM), 1.16; with TPCA-1 + Foretinib (first compound 1.265 µM), 1.06; with TPCA-1 + Foretinib (first compound 4 µM) it was 1; in experiment [1] (first compound 0.2 µM) it was 0.343; in experiment [1] (first compound 0.6325 µM), 0.339. Also, the relative viability is 0.363 in experiment [1] (first compound 2 µM); 0.332 in experiment [1] (first compound 6.325 µM); 0.374 in experiment [1] (first compound 20 µM); 1.15 with TPCA-1 + Bortezomib (first compound 0.04 µM); 1.04 with TPCA-1 + Bortezomib (first compound 0.1265 µM); 1.07 with TPCA-1 + Bortezomib (first compound 0.4 µM). Further, the results for the relative viability with TPCA-1 + Bortezomib (first compound 1.265 µM) and with TPCA-1 + Bortezomib (first compound 4 µM) were 1.06 and 1.09, respectively.

Take NCI-H2228: the relative viability is 1.54 with TPCA-1 + Lapatinib (first compound 0.04 µM); 0.867 in the experiment with TPCA-1 + Lapatinib (first compound 0.1265 µM); 1.32 with TPCA-1 + Lapatinib (first compound 0.4 µM); 0.853 with TPCA-1 + Lapatinib (first compound 1.265 µM); 0.537 with TPCA-1 + Lapatinib (first compound 4 µM); 0.899 with TPCA-1 + Foretinib (first compound 0.04 µM). Also, the relative viability with TPCA-1 + Foretinib (first compound 0.1265 µM) is 0.677; with TPCA-1 + Foretinib (first compound 0.4 µM), 0.842; with TPCA-1 + Foretinib (first compound 1.265 µM) it was 0.717; with TPCA-1 + Foretinib (first compound 4 µM), 0.722; in experiment [1] (first compound 0.2 µM), 0.784; in experiment [1] (first compound 0.6325 µM) it was 0.697. Besides, the relative viability stood at 0.61 in experiment [1] (first compound 2 µM); 0.793 in experiment [1] (first compound 6.325 µM); 0.686 in experiment [1] (first compound 20 µM); 1.01 with TPCA-1 + Bortezomib (first compound 0.04 µM); 0.891 with TPCA-1 + Bortezomib (first compound 0.1265 µM); 0.916 with TPCA-1 + Bortezomib (first compound 0.4 µM). The relative viability with TPCA-1 + Bortezomib (first compound 1.265 µM) worked out at 1.12; in the experiment with TPCA-1 + Bortezomib (first compound 4 µM) it was 0.6.

As for NCI-H2347, the relative viability with TPCA-1 + Lapatinib (first compound 0.04 µM) stood at 1.07; in the experiment with TPCA-1 + Lapatinib (first compound 0.1265 µM), 0.739; with TPCA-1 + Lapatinib (first compound 0.4 µM) it was 0.963; with TPCA-1 + Lapatinib (first compound 1.265 µM), 0.78; in the experiment with TPCA-1 + Lapatinib (first compound 4 µM), 0.896; in the experiment with TPCA-1 + Foretinib (first compound 0.04 µM) it was 1.03. Also, the relative viability came out at 1.16 with TPCA-1 + Foretinib (first compound 0.4 µM); 0.551 in the experiment with TPCA-1 + Foretinib (first compound 1.265 µM); 0.782 in the experiment with TPCA-1 + Foretinib (first compound 4 µM); 0.381 in experiment [1] (first compound 0.2 µM); 0.454 in experiment [1] (first compound 0.6325 µM); 0.449 in experiment [1] (first compound 2 µM). The relative viability in experiment [1] (first compound 6.325 µM) came to 0.398; in experiment [1] (first compound 20 µM), 0.413; in the experiment with TPCA-1 + Bortezomib (first compound 0.04 µM), 0.945; with TPCA-1 + Bortezomib (first compound 0.4 µM), 0.894; in the experiment with TPCA-1 + Bortezomib (first compound 1.265 µM), 0.662; in the experiment with TPCA-1 + Bortezomib (first compound 4 µM) it was 1.16.

With NCI-H2405, the relative viability is 1.19 with TPCA-1 + Lapatinib (first compound 0.04 µM); 0.915 in the experiment with TPCA-1 + Lapatinib (first compound 0.1265 µM); 1.1 in the experiment with TPCA-1 + Lapatinib (first compound 0.4 µM); 0.949 in the experiment with TPCA-1 + Lapatinib (first compound 4 µM); 1.03 with TPCA-1 + Foretinib (first compound 0.04 µM); 1.05 in the experiment with TPCA-1 + Foretinib (first compound 0.1265 µM). Also, the relative viability turned out to be 1.11 with TPCA-1 + Foretinib (first compound 0.4 µM); 0.991 with TPCA-1 + Foretinib (first compound 1.265 µM); 1.03 with TPCA-1 + Foretinib (first compound 4 µM); 0.555 in experiment [1] (first compound 0.2 µM); 0.509 in experiment [1] (first compound 0.6325 µM); 0.575 in experiment [1] (first compound 2 µM). Besides, the relative viability was 0.52 in experiment [1] (first compound 6.325 µM); 0.504 in experiment [1] (first compound 20 µM); 0.988 with TPCA-1 + Bortezomib (first compound 0.04 µM); 0.843 with TPCA-1 + Bortezomib (first compound 0.1265 µM); 1.02 with TPCA-1 + Bortezomib (first compound 0.4 µM); 0.92 with TPCA-1 + Bortezomib (first compound 1.265 µM). Also, in the experiment with TPCA-1 + Bortezomib (first compound 4 µM), the relative viability is 0.289.

As for NCI-H3122, the relative viability with TPCA-1 + Lapatinib (first compound 0.04 µM) was determined as 1.03; in the experiment with TPCA-1 + Lapatinib (first compound 0.1265 µM), 0.939; in the experiment with TPCA-1 + Lapatinib (first compound 0.4 µM), 0.985; with TPCA-1 + Lapatinib (first compound 1.265 µM), 1.05; with TPCA-1 + Lapatinib (first compound 4 µM) it was 0.976; with TPCA-1 + Foretinib (first compound 0.04 µM) it was 1.06. Also, the relative viability with TPCA-1 + Foretinib (first compound 0.1265 µM) was determined as 0.914; in the experiment with TPCA-1 + Foretinib (first compound 0.4 µM), 1.02; with TPCA-1 + Foretinib (first compound 1.265 µM), 0.928; in the experiment with TPCA-1 + Foretinib (first compound 4 µM), 0.909; in experiment [1] (first compound 0.2 µM), 0.178; in experiment [1] (first compound 0.6325 µM), 0.175. Also, the relative viability was found to be 0.172 in experiment [1] (first compound 2 µM); 0.201 in experiment [1] (first compound 6.325 µM); 0.171 in experiment [1] (first compound 20 µM); 1.09 with TPCA-1 + Bortezomib (first compound 0.04 µM); 0.983 with TPCA-1 + Bortezomib (first compound 0.1265 µM); 1.08 with TPCA-1 + Bortezomib (first compound 0.4 µM). For the same cell line, the figures for the relative viability with TPCA-1 + Bortezomib (first compound 1.265 µM) and in the experiment with TPCA-1 + Bortezomib (first compound 4 µM) were 1.01 and 0.975, respectively.
